In US20240199754A1 (VANCOUVER BIOTECH LTD., priority 2021, published 2024):
Square brackets hold non-standard residues; d marks the D form. Peptide text beside a SMILES is read from it. dPhe(4-Cl) = N[C@H](Cc1ccc(Cl)cc1)C(=O)O; d2Nal = N[C@H](Cc1ccc2ccccc2c1)C(=O)O; dCit = NC(=O)NCCC[C@@H](N)C(=O)O; d3Pal = N[C@H](Cc1cccnc1)C(=O)O

What was measured:
[1] = tested on: pituitary GnRH receptor; test: Serum LH and testosterone after single injection, single adult male rabbit; type: in vivo
Procedure: In the case of male rabbits, serum concentrations of reproductive hormones including luteinizing hormone (LH) and testosterone were monitored regularly following a single subcutaneous injection with 3 mg/kg of hGHR-106.
The serum LH and testosterone concentrations were determined, respectively, by EIA kits and plotted as a function of time during the day 1 to 30 time period.

[2] = tested on: pituitary GnRH receptor; test: Large scale proof of concept experiment, male rabbits (testosterone, LH); type: in vivo, rabbit
Procedure: (§1) With preliminary observations in single rabbit data, large scale rabbit experiments (n≥30) including negative controls were conducted with identical protocols. […] The data generated in each experimental group were analyzed statistically. The means and standard deviations of hormone levels from rabbits in each experimental group are presented in FIGS. 6-9 and corresponding selected statistical analyses and separate comparisons with those of the negative controls are presented in Table 1 to Table 4.
In the case of male rabbits, the serum concentrations of reproductive hormones including LH and testosterone of ten male rabbits were monitored and measured after a single subcutaneous injection with 1 mg/kg of GHR-106 (low dosage, n=3) or 3 mg/kg of GHR-106 (high dosage, n=3) on day 1, or after no injection (negative control, n=4). Serum testosterone levels were determined and the averages (with standard deviations) were determined from day 1 to day 17, and serum LH levels were determined starting on day 1 and ending on day 13 (with standard deviations) The results of the testosterone profile are found in FIG. 6. The results of the LH profile are found in FIG. 7. Selected statistical analyses and separate comparisons with those of the negative controls for FIG. 6 and FIG. 7 are found in Table 1 and Table 2, respectively.

[3] = target: T1, GnRHR (Homo sapiens, UniProt P30968); test: Detection of GnRHR overexpression in a reference cell line; type: cell-based; conditions: compared with four commercially available antibodies
T1 sequence (P30968 1-328): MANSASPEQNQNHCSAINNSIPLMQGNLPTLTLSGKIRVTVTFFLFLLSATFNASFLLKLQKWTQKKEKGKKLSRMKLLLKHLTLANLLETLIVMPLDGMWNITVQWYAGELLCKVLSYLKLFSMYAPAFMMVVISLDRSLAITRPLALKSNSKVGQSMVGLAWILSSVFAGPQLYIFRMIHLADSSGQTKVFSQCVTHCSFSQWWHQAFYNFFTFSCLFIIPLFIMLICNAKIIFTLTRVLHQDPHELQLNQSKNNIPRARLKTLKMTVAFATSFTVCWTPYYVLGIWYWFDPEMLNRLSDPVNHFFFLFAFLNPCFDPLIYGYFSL
Procedure: In particular, the ability of GHR-106 to detect overexpression of GnRHR in a reference cell line is tested and compared with four different commercially available antibodies.

[4] = tested on: N1-29 synthetic oligopeptide of GnRH receptor from rabbit; test: Comparative binding ELISA on well-coated N1-29 oligopeptide (rabbit); conditions: vs unrelated RP215 negative control
N1-29 synthetic oligopeptide of GnRH receptor from rabbit, sequence (as listed by the source): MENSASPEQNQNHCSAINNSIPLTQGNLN
Procedure: (§2) Therefore, comparative binding ELISA studies were performed to estimate the relative binding affinity between GHR-106 and microwell-coated N1-29 oligopeptides derived from human, dog and rabbit, respectively. The results of such binding studies are presented and compared in FIG. 2.
(§3) Unrelated RP215 monoclonal antibody was used as the negative control for any blank subtractions. Goat anti-human IgG labeled with alkaline phosphatase was used as the second antibody for signal detection. P-nitrophenyl phosphate was used as the substrate and monitored at 405 nm and double log plot presented.

[5] = tested on: pituitary GnRH receptor; test: Serum LH and estradiol after single injection, female rabbit; type: in vivo
Procedure: The hormonal profiles of serum luteinizing hormone (LH) and Estradiol (E2) in female rabbits were monitored upon a single injection with a 3 mg/kg dose of hGHR-106.

[6] = cited from earlier work
[7] = tested on: N1-29 peptide of rabbit GnRH receptor; conditions: cited from earlier work
[8] = tested on: N1-29 synthetic oligopeptide of GnRH receptor from dog; test: Comparative binding ELISA on well-coated N1-29 oligopeptide (dog); conditions: vs unrelated RP215 negative control
N1-29 synthetic oligopeptide of GnRH receptor from dog, sequence (as listed by the source): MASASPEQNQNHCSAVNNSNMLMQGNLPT
Procedure: as §2, §3

[9] = target: T2, N1-29 synthetic oligopeptide of GnRH receptor from humans (Homo sapiens, UniProt P30968); test: Comparative binding ELISA on well-coated N1-29 oligopeptide (human); conditions: vs unrelated RP215 negative control
T2 sequence (P30968 1-30): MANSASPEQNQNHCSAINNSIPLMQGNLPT
Procedure: as §2, §3

[10] = tested on: N1-29 peptide of dog GnRH receptor; conditions: cited from earlier work
[11] = tested on: N1-29 peptide of cat GnRH receptor; conditions: cited from earlier work
N1-29 peptide of cat GnRH receptor, sequence (as listed by the source): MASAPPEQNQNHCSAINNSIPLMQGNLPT

[12] = tested on: pituitary GnRH receptor; test: Large scale proof of concept experiment, female rabbits (estradiol, LH); type: in vivo, rabbit
Procedure: as §1
Target sequence in this assay (as listed by the source): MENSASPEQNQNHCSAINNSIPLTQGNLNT
In the case of female rabbits, the serum concentrations of reproductive hormones including LH and estradiol (E2) of ten female rabbits were monitored and measured after a single subcutaneous injection with 1 mg/kg of GHR-106 (low dosage, n=3) or 3 mg/kg of GHR-106 (high dosage, n=3) on day 1, or after no injection (negative control, n=4). Serum E2 levels were determined starting on day 1 and ending on day 17, and serum LH levels were determined starting on day 1 and ending on day 13. The results of the estradiol (E2) profile are found in FIG. 8. The results of the LH profile are found in FIG. 9. Selected statistical analyses and separate comparisons with those of the negative controls for FIG. 8 and FIG. 9 are found in Table 3 and Table 4, respectively.

[13] = tested on: N1-29 peptide of monkey GnRH receptor; conditions: cited from earlier work
N1-29 peptide of monkey GnRH receptor, sequence (as listed by the source): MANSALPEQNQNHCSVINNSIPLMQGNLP

[14] = tested on: OC-3-VGH ovarian cancer cells; test: Quantitative RT-PCR gene regulation study; type: cell-based, human; conditions: quantitative RT-PCR after incubation with cancer cells
[15] = tested on: pituitary GnRH receptor; test: Proof-of-concept rabbit experiments overall (single and multi-rabbit); type: in vivo; conditions: single injection, 1 mg/kg or 3 mg/kg
Procedure: as §1

[16] = tested on: human cancer cells; conditions: 24 to 72 hours co-incubation with 1-10 μg/ml; cited from earlier work
[17] = target: T3, N1-29 synthetic oligopeptide of human GnRH receptor (human); test: ELISA on well-coated N1-29 peptide, goat anti-human IgG-alkaline phosphatase, OD 405 nm
T3 construct: Synthetic peptide coated on microwells; also called human N1-29 peptide; N1-29 oligopeptide
T3 peptide: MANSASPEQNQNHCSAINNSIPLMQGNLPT

[18] = male rabbit, single subcutaneous injection of 1 mg/kg or 3 mg/kg
[19] = male rabbits, single injection day 1, low (1 mg/kg) or high (3 mg/kg) dosage, vs negative control
[20] = single injection day 1, low (1 mg/kg) or high (3 mg/kg) dosage, vs negative control

Molecule: GHR-106: monoclonal antibody against N1-29 oligopeptide of human GnRH receptor; examples use humanized IgG4 form, heavy chain SEQ ID NO:7, light chain SEQ ID NO:8
- duration of low LH levels ([1]; 3 mg/kg s.c.): at least one to two
- serum LH ([1]; 3 mg/kg s.c., after 24-48 hours, from 3.5 mlU/ml): < 0.5 mlU/ml
- serum LH, stable normal range reached ([1]; 3 mg/kg s.c., end of the third week): 2.9-5.0 mlU/ml
- decrease of serum testosterone concentration ([1]; 3 mg/kg single injection, first two weeks): more than 80%
- serum testosterone concentration ([1]; 3 mg/kg single injection, first two weeks, from 0.95 ng/ml): ≤ 0.1 ng/mL
- LH and testosterone hormone levels ([1]; 3 mg/kg, day 30): within the normal range
- decrease of serum LH concentration, of the normal level [2, 18]: 80 to 90%
- decrease of serum testosterone concentration, of the normal level [2, 18]: 80 to 90%
- period of decreased serum LH and testosterone [2, 18]: seven to ten
- time until reproductive hormones returned to normal levels after the initial injection [2, 18]: approximately two
- t test, LH profile, neg. ctrl to 1 mg/kg ([2]; male rabbits, Day 3, 1 mg/kg): 3.579
- t test, testosterone profile, neg. ctrl to 1 mg/kg ([2]; male rabbits, Day 3, 1 mg/kg): 2.966
- t test, LH profile, neg. ctrl to 3 mg/kg ([2]; male rabbits, Day 3, 3 mg/kg): 1.474
- t test, testosterone profile, neg. ctrl to 3 mg/kg ([2]; male rabbits, Day 3, 3 mg/kg): 4.2
- t test, LH profile, neg. ctrl to 1 mg/kg ([2]; male rabbits, Day 5, 1 mg/kg): 4.698
- t test, testosterone profile, neg. ctrl to 1 mg/kg ([2]; male rabbits, Day 5, 1 mg/kg): 3.353
- t test, LH profile, neg. ctrl to 3 mg/kg ([2]; male rabbits, Day 5, 3 mg/kg): 3.596
- t test, testosterone profile, neg. ctrl to 3 mg/kg ([2]; male rabbits, Day 5, 3 mg/kg): 3.851
- t test, LH profile, neg. ctrl to 1 mg/kg ([2]; male rabbits, Day 7, 1 mg/kg): 4.126
- t test, testosterone profile, neg. ctrl to 1 mg/kg ([2]; male rabbits, Day 7, 1 mg/kg): 1.086
- t test, LH profile, neg. ctrl to 3 mg/kg ([2]; male rabbits, Day 7, 3 mg/kg): 3.62
- t test, testosterone profile, neg. ctrl to 3 mg/kg ([2]; male rabbits, Day 7, 3 mg/kg): 7.396
- t test, LH profile, neg. ctrl to 1 mg/kg ([2]; male rabbits, Day 9, 1 mg/kg): 2.936
- t test, testosterone profile, neg. ctrl to 1 mg/kg ([2]; male rabbits, Day 9, 1 mg/kg): 0.3439
- t test, LH profile, neg. ctrl to 3 mg/kg ([2]; male rabbits, Day 9, 3 mg/kg): 3.56
- t test, testosterone profile, neg. ctrl to 3 mg/kg ([2]; male rabbits, Day 9, 3 mg/kg): 0.8405
- serum LH levels [2, 19]: reversibly suppressed
- serum testosterone levels [2, 19]: reversibly suppressed
- ability to detect overexpression of GnRHR [3]: able to detect overexpression of GnRHR
- binding affinity to N1-29 peptide (ELISA, ΔOD 405 nm) [4]: comparable to one another
- serum LH ([5]; 3 mg/kg single injection, first few days, from 3 mlU/ml): ≤ 1 mlU/ml
- serum E2 concentration ([5]; 3 mg/kg single injection, until day 10, from 50 pg/ml): ≤ 20 pg/mL
- serum E2 concentration reached on recovery ([5]; 3 mg/kg, after day 18 and 20): 120 pg/mL
- serum LH concentration reached on recovery ([5]; 3 mg/kg, after day 18 and 20): 6 mIU/ml
- half-life ([6]; in vivo): 120 to 504 h
- cross-reactivity with N1-29 peptide [7]: cross-reacts
- binding affinity to N1-29 peptide (ELISA, ΔOD 405 nm) [8]: comparable to one another
- binding affinity to N1-29 peptide (ELISA, ΔOD 405 nm) [9]: comparable to one another
- cross-reactivity with N1-29 peptide [10]: cross-reacts
- cross-reactivity with N1-29 peptide [11]: cross-reacts
- t test, LH profile, neg. ctrl to 1 mg/kg ([12]; Day 3, 1 mg/kg): 3.93
- t test, estradiol (E2) profile, neg. ctrl to 1 mg/kg ([12]; Day 3, 1 mg/kg): 1.179
- t test, LH profile, neg. ctrl to 3 mg/kg ([12]; Day 3, 3 mg/kg): 6.348
- t test, estradiol (E2) profile, neg. ctrl to 3 mg/kg ([12]; Day 3, 3 mg/kg): 1.125
- t test, LH profile, neg. ctrl to 1 mg/kg ([12]; Day 5, 1 mg/kg): 6.556
- t test, estradiol (E2) profile, neg. ctrl to 1 mg/kg ([12]; Day 5, 1 mg/kg): 2.893
- t test, LH profile, neg. ctrl to 3 mg/kg ([12]; Day 5, 3 mg/kg): 5.114
- t test, estradiol (E2) profile, neg. ctrl to 3 mg/kg ([12]; Day 5, 3 mg/kg): 2.039
- t test, LH profile, neg. ctrl to 1 mg/kg ([12]; Day 7, 1 mg/kg): 6.018
- t test, estradiol (E2) profile, neg. ctrl to 1 mg/kg ([12]; Day 7, 1 mg/kg): 2.807
- t test, LH profile, neg. ctrl to 3 mg/kg ([12]; Day 7, 3 mg/kg): 4.126
- t test, estradiol (E2) profile, neg. ctrl to 3 mg/kg ([12]; Day 7, 3 mg/kg): 2.45
- t test, LH profile, neg. ctrl to 1 mg/kg ([12]; Day 9, 1 mg/kg): 1.1
- t test, estradiol (E2) profile, neg. ctrl to 1 mg/kg ([12]; Day 9, 1 mg/kg): 3.048
- t test, LH profile, neg. ctrl to 3 mg/kg ([12]; Day 9, 3 mg/kg): 4.126
- t test, estradiol (E2) profile, neg. ctrl to 3 mg/kg ([12]; Day 9, 3 mg/kg): 5.087
- serum LH levels [12, 20]: reversibly suppressed
- serum estradiol (E2) levels [12, 20]: reversibly suppressed
- cross-reactivity with N1-29 peptide [13]: cross-reacts
- gene expression changes of ten regulatory genes, compared between GHR-106 and Antide [14]: strong similarity
- time until hormone levels return to normal ranges [15]: 1-3 weeks
- degrees of induced apoptosis [16]: comparable to those of the decapeptide GnRH antagonist, Antide

Molecule: CC(=O)N[C@H](Cc1ccc2ccccc2c1)C(=O)N[C@H](Cc1ccc(Cl)cc1)C(=O)N[C@H](Cc1cccnc1)C(=O)N[C@@H](CO)C(=O)N[C@@H](Cc1ccc(O)cc1)C(=O)N[C@H](CCCNC(N)=O)C(=O)N[C@@H](CC(C)C)C(=O)N[C@@H](CCCNC(=N)N)C(=O)N1CCC[C@H]1C(=O)N[C@H](C)C(N)=O [Cetrorelix, reference compound] (Ac-[d2Nal][dPhe(4-Cl)][d3Pal]SY[dCit]LRP[dA]-NH2)
- circulation half life [6]: 10 to 63 h

B1: GHR-106(hIgG4), humanized IgG4 GHR-106 monoclonal antibody (antibody, V domains shown)
VH: QVQLQESGPGLVKPSETLSLTCTVSGFSLSRYSVHWIRQPPGKGLEWIGMIWGGGSTDYNPSLKSRVTISKDNSKSQVFLKMSSVTAADTAMYYCARGNDGYYSFAYWGQGTLVTVSS
VL: DIVMTQSPDSLAVSLGERATINCKSSQSLLNSRTRKNYLAWYQQKPGQSPKLLIYWASTRESGVPDRFSGSGSGTDFTLTISSLQAEDVAVYYCKQSYNLYTFGQGTKLEIKR
notes: Humanized IgG4
- binding result [17]: binds
